According to patent US8158558B2, “Herbicide combinations comprising specific sulfonylureas” (Bayer CropScience GmbH, priority 2001, dated 2012):
Where two headings read alike, the source gives them in different places. Values belong to the molecule of their own block, whether it stands above or below them.

How the values were obtained:
Format in all cases: in vivo
Wheat = tested on: Wheat
Description: (§1) Herbicidal Action (Outdoor Trials)
(§2) The seeds or rhizome pieces of typical harmful plants were planted and grown under natural outdoor conditions. After the harmful plants had emerged, they were treated, as a rule at the 2- to 4-leaf stage, with various dosages of the compositions according to the invention at a water application rate of 100 to 400 I/ha (converted).
(§3) After the treatment (approx. 4-6 weeks after application), the herbidical activity of the active compounds or active compound mixtures was scored visually by comparing the treated plots with the untreated control plots. Damage and development of all above-ground parts of the plants was recorded. Scoring was done on a percentage scale (100% action=all plants dead; 50% action=50% of the plants and green plant parts dead; 0% action=no discernible action=like control plot). The score figures of in each case 4 plots were averaged.
(§4) The results are listed in the tables below, where the activity measured for the independent use of the active compounds (A) and (B) is stated in brackets and where g of AS/ha denotes grams of active substance per hectare.

Veronica hederifolia = assay: Herbicidal action (outdoor trials), post-emergence, Veronica hederifolia; conditions: visual score approx. 4-6 weeks after application, mean of 4 plots
Description: as §1, §2, §3, §4

Setaria viridis = assay: Herbicidal action (outdoor trials), post-emergence, Setaria viridis; conditions: read-out: Setaria viridis % activity
Description: as §1, §2, §3, §4

Wheat % activity (Wheat; 25 g of AS/ha, outdoor, visual score approx. 4-6 weeks after application, mean of 4 plots): 0%
Structure (SMILES): CCOC(=O)/C(Cl)=C/c1cc(N2C(=O)C3=C(CCCC3)C2=O)ccc1Cl [cinidon-ethyl (B7), ethyl (Z)-2-chloro-3-[2-chloro-5-(1,2-cyclohex-1-enedicarboximido)phenyl]acrylate]
Wheat % damage (Wheat; 50 g of AS/ha, outdoor, visual score approx. 4-6 weeks after application, mean of 4 plots): 5%
Veronica hederifolia % damage (Veronica hederifolia; 25 g of AS/ha): 35%
Veronica hederifolia % activity (Veronica hederifolia; 50 g of AS/ha): 25%

Structure (SMILES): COc1ncc(F)c2nc(S(=O)(=O)Nc3c(F)cccc3F)nn12 [florasulam (B3), 2′,6′,8′-trifluoro-5-methoxy[1,2,4]triazolo[1,5-c]pyrimidine-2-sulfanilide]
Wheat % activity (Wheat; 4 g of AS/ha, outdoor, visual score approx. 4-6 weeks after application, mean of 4 plots): 0%
Veronica hederifolia % damage (Veronica hederifolia; 4 g of AS/ha): 60%

Structure (SMILES): COc1nn(C(=O)NS(=O)(=O)c2ccccc2OC(F)(F)F)c(=O)n1C.[Na] [flucarbazone (B1), 4,5-dihydro-3-methoxy-4-methyl-5-oxo-N-(2-trifluoromethoxyphenylsulfonyl)-1H-1,2,4-triazole-1-carboxamide sodium salt]
Wheat % damage (Wheat; 10 g of AS/ha, outdoor, visual score approx. 4-6 weeks after application, mean of 4 plots): 5%
inhibition at 10 g/ha (Setaria viridis): 40%

Wheat % activity (Wheat; in vivo): 0%
Structure (SMILES): O=C(Nc1ccc(F)cc1)c1cccc(Oc2cccc(C(F)(F)F)c2)n1 [picolinafen (B6), 4′-fluoro-6-[(α,α,α-trifluoro-m-tolyl)oxy]picolinanilide]
Wheat % damage (Wheat; in vivo): 0%
Veronica hederifolia % damage (Veronica hederifolia; 5 g of AS/ha): 55%
inhibition at 30 g/ha (Veronica hederifolia; Veronica hederifolia, 30 g of AS/ha): 65%
